# Source: PMC7822874, “Chemoprotective antimalarials identified through quantitative high-throughput screening of Plasmodium blood and liver stage parasites” (Scientific Reports, 2021)
# System: Plasmodium falciparum Dd2 asexual blood stage parasites
# Assay: microbe, parasite or virus in culture
# Design: species or system Plasmodium falciparum Dd2 in human erythrocytes; single determination (one 11-point concentration-response curve)
# Conditions: Plasmodium falciparum, DD2, Erythrocyte, 72 h; read-out: AC50
row,SMILES,AC50
1,COc1ccc(CCNc2nc3cc(OC)c(OC)cc3c3nc(-c4ccccc4)nn23)cc1OC [NCGC00112847-01],2.37 µM
2,O=C(N/N=C/c1ccc(OCc2ccccc2)cc1)c1ccco1 [MLS000769970-01],13.3 µM
3,CCOc1ccc(CCNC(=O)c2ccc3c(c2)N(Cc2ccccc2F)C(=O)c2ccccc2[S+]3[O-])cc1OCC (stereo not drawn) [NCGC00109590-01],10.6 µM
4,COc1ccccc1N1CCN([C@H]2[C@@H]3OC[C@@H](O3)[C@@H](NCc3ccc(-c4ccccc4)cc3)[C@@H]2O)CC1 [NCGC00392675-01],15 µM
5,CCCCC(=O)Nc1nc(C)c(-c2csc(Nc3cc(OC)ccc3OC)n2)s1 [MLS000561609-01],9.44 µM
6,CN1CCN(C(=O)C(C)(C)Oc2nn(Cc3cccc(Cl)c3)c3ccccc23)CC1 [NCGC00419545-01],7.69 µM
7,Cc1ccc(O)c(CN2CCN(c3ccccc3)CC2)c1 [MLS000084753-01],2.99 µM
8,CCOC(=O)c1c(CN(C)C)oc2cc(CN(C)C)c(O)c(CSc3ccccc3)c12 [MLS000038262-01],0.596 µM
9,COc1ccc(-c2nc(Cn3c(SCc4ccccc4F)nc4ccncc43)c(C)o2)cc1OC [NCGC00113862-01],8.41 µM
10,CC(=O)Nc1cc(-c2ccccc2)ccc1O [MLS000030849-01],4.73 µM
11,O=C1CC(c2ccccc2)N(Cc2ccncc2)CCCN([S+](=O)([O-])c2cccs2)CCN1 (stereo not drawn) [NCGC00467201-01],6.68 µM
12,C#C[C@H]1C[N@@]2CC[C@H]1C[C@@H]2CNCc1ccc(F)c(F)c1 [NCGC00399053-01],13.7 µM
13,Cc1cc(Nc2cccc(Cl)c2)nc(NCc2ccccc2)n1 [MLS000591844-01],8.41 µM
14,Cc1cc(Nc2ccc(C(C)C)cc2)n2ncnc2n1 [MLS000116597-01],4.22 µM
15,Cc1ccccc1OCCn1cc(C(=O)c2ccco2)c2ccccc21 [NCGC00101854-01],5.31 µM
16,CCCCN(CC)CCNC(S)=Nc1ccc2nc(N3CCN(C)CC3)cc(C)c2c1 [MLS001197626-01],5.96 µM
17,Cc1oc2ccc(O)c(CN3CCCC(C)C3)c2c1C(=O)Nc1ccccc1 (stereo not drawn) [NCGC00115528-01],2.11 µM
18,CCOC(=O)c1cccc(NC(=O)CCn2c(-c3ccc(F)cc3)cc(C(=O)OCC)c2C)c1 [NCGC00140860-01],0.075 µM
19,Cc1nc2cc(F)ccc2n1C1CCN(C(=O)c2c(F)cccc2F)CC1 [MLS000710077-01],5.96 µM
20,Cc1nnc(NC(=O)C2c3ccccc3C(=O)N(CC(C)C)C23CCCCC3)s1 (stereo not drawn) [NCGC00423223-01],15 µM
21,CCOC(=O)COn1c(-n2nc(C)cc2C)nc2ccccc2c1=O [MLS001215150-01],9.44 µM

row,SMILES,AC50
1,COc1ccc(C2Nc3ccccc3C(=O)N2Cc2ccccc2)cc1COc1ccc(Cl)cc1Cl (stereo not drawn) [NCGC00165212-01],8.41 µM
2,COc1cccc(CN2CCCC(NCc3cc(C)ccc3-n3cccn3)C2)c1 (stereo not drawn) [NCGC00427605-01],2.99 µM
3,COc1ccc(-c2cnc3[nH]cc(CC(=O)NCc4cccnc4)c3c2)cc1OC [NCGC00412448-01],1.53 µM
4,COC(=O)CC1Oc2ccc(Cl)cc2-n2cc(-c3ccc(F)cc3)nc21 (stereo not drawn) [NCGC00164810-01],4.22 µM
5,Cc1noc(C)c1-c1nccc2c(=O)cc(N(C)c3ccccc3)oc12 [NCGC00416678-01],17.2 µM
6,O=C1COCC2(CN(Cc3ccsc3)C2)CN1Cc1cccc(OC(F)(F)F)c1 [NCGC00418928-01],17.2 µM
7,CN(C(=O)CSc1nc2ccc(NC(=O)CCc3ccccc3)cc2s1)c1ccccc1 [NCGC00118644-01],13.3 µM
8,CC1=CC(C)(C)Nc2ccc(OC(=O)c3cccnc3)cc21 [MLS000111190-01],13.3 µM
9,CCNc1nc(NC(C)CC)nc(ON=C(C)C)n1 (stereo not drawn) [MLS000856336-01],8.41 µM
10,COc1ccc(-c2n[nH]c3ncc(-c4ccc([S+](C)(=O)[O-])cc4)nc23)c(C)c1 [NCGC00419180-01],15.3 µM
11,COc1ccc(-c2cc(C[C@@H]3CC[C@H](O)[C@@H](CNCc4ccccc4OC)O3)no2)cc1 [NCGC00421057-01],3.44 µM
12,CC(=O)N1c2c(cc(Br)cc2[S+](=O)([O-])N2CCN(c3cc(C)ccc3C)CC2)CC1C (stereo not drawn) [NCGC00104358-01],11.9 µM
13,Cc1cc(C(=O)CN2C(=O)NC(C)(c3cccc(Br)c3)C2=O)c(C)n1Cc1ccco1 (stereo not drawn) [MLS000055137-01],13.3 µM
14,COc1ccc(Oc2c(C(F)(F)F)oc3c(CN4CCCC(C)C4)c(O)ccc3c2=O)cc1 (stereo not drawn) [NCGC00101510-01],2.37 µM
15,COc1cc(C)ccc1OCCSc1nc2ccc(NC(=O)c3ccc(F)cc3)cc2s1 [NCGC00118562-01],10.6 µM
16,Clc1ccc2c(N3CCCC3)ccnc2c1 [MLS000049600-01],3.76 µM
17,CCOC(=O)c1c(CSC(=N)N)n(-c2ccc(C)cc2)c2cc(Br)c(OC(C)=O)cc12 [MLS001304955-01],5.96 µM
18,C=CCOC(=O)C1=C[C@@H](c2ccc(C(F)(F)F)cc2)[C@H](CCCO)[C@@H](OCC)O1 [MLS000766375-01],7.5 µM
19,COc1cc(-c2nc(-c3c(C)noc3C)cc3c2cc(C)n3CCN(C)C)ccn1 [NCGC00417201-01],17.2 µM
20,CCCCn1cc(C(=O)c2cc(Br)ccc2O)cc(C#N)c1=O [MLS000568063-01],13.3 µM
21,CCC(C)(C)n1nnnc1C(c1cccnc1)N1CCN(c2cccc(C(F)(F)F)c2)CC1 (stereo not drawn) [MLS000122548-01],6.68 µM

row,SMILES,AC50
1,O=C(CC(c1ccc(F)cc1)c1cn(Cc2ccccc2)c2ccc([N+](=O)[O-])cc12)N1CCOCC1 (stereo not drawn) [NCGC00473380-01],9.44 µM
2,Cc1ccc(Nc2cc(C)nn2-c2nc(C)cc(C)n2)cc1 [MLS000048464-01],6.68 µM
3,CN1CCN(c2nc(Nc3ccc(O)cc3)nc3ccccc23)CC1 [MLS000716977-01],4.22 µM
4,CC(=O)c1sc2c(c1C)c(=O)n(-c1ccc(Cl)cc1)c(=O)n2Cc1cc(=O)n2cc(Cl)ccc2n1 [NCGC00104860-01],7.5 µM
5,O=C(Nc1nc2ccccc2n1Cc1ccccc1)c1ccc(COc2ccccc2[N+](=O)[O-])o1 [MLS000543610-01],16.8 µM
6,Oc1ccccc1C1=NN(c2ccccc2)C(c2ccccc2)C1 (stereo not drawn) [MLS001163829-01],7.5 µM
7,O=c1cc(-c2ccccc2)c2ccc3c(c2o1)CN(Cc1ccccc1)CO3 [NCGC00116340-01],2.66 µM
8,Cc1ccc(-c2nc3n(n2)C(c2ccccc2Cl)C=C(c2ccc(Cl)cc2)N3)cc1 (stereo not drawn) [NCGC00105122-01],9.44 µM
9,CCOc1ccc(NC(=O)CCc2c(C)nc3cc(-c4ccc(Cl)cc4)nn3c2C)cc1 [NCGC00110024-01],6.68 µM
10,Cc1ccc(C(=O)N2CCC(c3c[nH]c4ccccc34)(c3c[nH]c4ccccc34)CC2)cc1 [NCGC00113768-01],8.41 µM
11,CCC(C)N(CCNC(=O)c1ccc2c(c1)NC(=O)c1ccccc1S2)C1CCCCC1 (stereo not drawn) [MLS001110969-01],13.3 µM
12,COc1cc2c(cc1OCC1CC1)NC(=O)C21CCN(c2nccs2)CC1 [NCGC00416908-01],21.7 µM
13,CC(C)(C)c1ccc(CN(Cc2ccccc2)C(c2ccccn2)c2nnnn2C(C)(C)C)cc1 (stereo not drawn) [MLS000529130-01],4.73 µM
14,CCN1CCN(c2cc(C)c3cc(NC(=O)c4cc(OC)cc(OC)c4)ccc3n2)CC1 [NCGC00103842-01],3.35 µM
15,COc1cc(NC(=O)Cn2ncc3c(=O)oc4ccccc4c32)cc(OC)c1OC [NCGC00108571-01],2.66 µM
16,CCOc1ccc(C(C)NC(S)=NC2CCCCC2)cc1OCC (stereo not drawn) [MLS001007596-01],0.211 µM
17,O=C(Nc1ccc(F)cc1F)N1CCOc2ccc(CN3CCc4ccccc4C3)cc2C1 [NCGC00471236-01],16.8 µM
18,O=C(Nc1ccncc1)Nc1ccc(Cl)cc1 [MLS001224591-01],10.6 µM
19,Cc1c(Cl)cccc1Nc1nn2c(=O)c3ccc(C(=O)N(C)Cc4ccccc4)cc3nc2s1 [NCGC00125571-01],16.8 µM
20,CCOc1cc(CNCC(O)c2ccccc2)cc(Cl)c1OC (stereo not drawn) [MLS000676147-01],3.35 µM
21,OC1=C2C(=Nc3ccccc3SC2c2c(F)cccc2Cl)c2ccccc21 (stereo not drawn) [NCGC00108823-01],9.44 µM

row,SMILES,AC50
1,CN1CCN(Cc2ccccc2Oc2ccc(C(F)(F)F)cn2)CC1 [NCGC00433787-01],0.531 µM
2,C=CC/N=C(\S)N1CCN(c2ccc([N+](=O)[O-])cc2)CC1 [MLS000581348-01],4.22 µM
3,c1ccc2c(c1)CNC1(CCN(Cc3cccc4ccccc34)CC1)CO2 [NCGC00477546-01],7.5 µM
4,CSc1nnc(-c2cc3ccccc3cc2O)n1C [MLS000035069-01],7.5 µM
5,COc1ccc(Nc2ccccc2NC(=O)c2ccccc2Br)cc1 [MLS001233685-01],5.96 µM
6,CC(C)OCCCNc1sc([S+](=O)([O-])c2ccccc2)nc1[S+](=O)([O-])c1ccc(Cl)cc1 [NCGC00116822-01],0.266 µM
7,CC(C)c1ccc(-c2noc(SCC(=O)N(C)c3ccc(F)cc3)n2)cc1 [NCGC00127932-01],0.944 µM
8,Cc1ccccc1NC(=O)c1c(C)oc2ccc(O)c(CN(C)Cc3ccccc3)c12 [NCGC00115709-01],2.37 µM
9,CC(C(=O)NC1CCCC1)N1CCN(S(=O)(=O)c2ccc(C(C)(C)C)cc2)CC1 (stereo not drawn) [MLS002169740-01],8.41 µM
10,COc1cc(OC)cc(-c2cc3nc4c(c(N5CCN(c6ncccn6)CC5)n3n2)CCCC4)c1 [MLS000035210-01],4.22 µM
11,CCN(CC)CCNC(=O)c1ccc(NC(=O)c2cccc(S(=O)(=O)N3CCc4ccccc43)c2)cc1 [MLS002169644-01],5.31 µM
12,CN(C)CCNCc1ccc(-c2ccccc2)o1 [NCGC00326685-02],10.6 µM
13,Cc1ccc(-n2cc(CNCCc3nc(C)c[nH]3)c(-c3ccc(F)cc3)n2)cc1 [MLS000735387-01],15 µM
14,O=c1cc(-c2ccccc2)[nH]c2ccc(F)cc12 [MLS000517821-01],5.96 µM
15,CCOc1ccc(NC(=O)c2ccc(-c3nnc4ccc(NC(=O)C5CC5)cn34)cc2)cc1 [NCGC00429851-01],2.99 µM
16,CCOC(=O)N1CCC(NC(=O)c2ccc3c(c2)N(Cc2ccccc2)C(=O)c2ccccc2[S+]3[O-])CC1 (stereo not drawn) [NCGC00109348-01],13.3 µM
17,CN1CCCC(CN(CCc2ccccc2)C(=O)c2cc(C#N)cn2C)C1 (stereo not drawn) [NCGC00443707-01],9.44 µM
18,Cc1cccc(CN2CCCN(Cc3ccncc3)C(c3ccccc3)CC(=O)NCC2)c1 (stereo not drawn) [NCGC00467184-01],4.22 µM
